Data as given in patent US9199985B2, “Compounds and methods for treatment of hypertension” (Medivation Technologies, Inc., priority 2011, dated 2015).

Details: conscious rabbits, intravenous, dose regimen identical to test compound; positive control
Description: Four adult New Zealand White rabbits of both sexes are chosen for these studies. […] The conscious rabbits are implanted with an intravenous catheter in marginal ear vein or by centrally by intracisternal catheter interfaced to a pressure transducer connected to a suitable recorder. To unveil peripheral effects of test compound, two sets of acute studies are conducted in rabbits. In the first set of studies, test compound is dosed to rabbit intravenously for a dose-response study with cumulative doses starting 0 (Ringer's Lock solution as a vehicle), 0.1, 0.3, 1, 3.2 and 10 mg/kg where each dose is tested on a separate day. A single intravenous bolus dose at 3 mg/kg is given and a time-course study is conducted in the second set of studies. Systolic, diastolic, mean and diastolic blood pressures are recorded in both the studies. Data collections are made for 3 hours in the second set of studies. Heart rate (HR) is derived electronically using an algorithm to determine HR from pulse interval. In a separate set of studies, Clonidine (positive control) is tested where all experimental procedures including dose-regimen are identical to that of the studies with test compound.

Structure (SMILES): Clc1cccc(Cl)c1N=C1NCCN1 [Clonidine]
- maximum drop of arterial blood pressure: −6 mmHg
